Experimental data reported in US11147812B2, “Tyrosine analogues derivatives as Rho-kinase inhibitors” (Chiesi Farmaceutici S.p.A., priority 2017, dated 2021).

Experiments:
Rho kinase 1 (ROCK1) = Rho kinase 1 (ROCK1) (Homo sapiens, UniProt Q13464); assay: In vitro Rho kinase inhibitory activity assay (ADP-Glo), ROCK1; type: biochemical; conditions: 10 μM ATP, 25° C., Ki by Cheng-Prusoff
Procedure: (§1) The effectiveness of compounds of the present invention to inhibit Rho kinase activity can be determined in a 10 μl assay containing 40 mM Tris pH7.5, 20 mM MgCl2 0.1 mg/ml BSA, 50 μM DTT and 2.5 μM peptide substrate (Myelin Basic Protein) using an ADP-Glo kit (Promega). Compounds were dissolved in DMSO such that the final concentration of DMSO was 1% in the assay. All reactions/incubations are performed at 25° C. Compound (2 ul) and either Rho kinase 1 or 2 (4 μl) were mixed and incubated for 30 mins. Reactions were initiated by addition of ATP (4 μl) such that the final concentration of ATP in the assay was 10 μM. After a 1 hour incubation 10 μl of ADP-Glo Reagent was added and after a further 45 minute incubation 20 ul of Kinase Detection Buffer was added and the mixture incubated for a further 30 minutes. The luminescent signal was measured on a luminometer. […] Compounds were tested in dose-response format and the inhibition of kinase activity was calculated at each concentration of compound. To determine the IC50 (concentration of compound required to inhibit 50% of the enzyme activity) data were fit to a plot of % inhibition vs Log10 compound concentration using a sigmoidal fit with a variable slope and fixing the maximum to 100% and the minimum to 0%. To determine the Ki values the Cheng-Prusoff equation was utilized (Ki=IC50/(1+[S]/Km)

Rho kinase 2 (ROCK2) = Rho kinase 2 (ROCK2) (Homo sapiens, UniProt O75116); assay: In vitro Rho kinase inhibitory activity assay (ADP-Glo), ROCK2; type: biochemical; conditions: 10 μM ATP, 25° C., Ki by Cheng-Prusoff
Rho kinase 2 (ROCK2), sequence (O75116 whole entry): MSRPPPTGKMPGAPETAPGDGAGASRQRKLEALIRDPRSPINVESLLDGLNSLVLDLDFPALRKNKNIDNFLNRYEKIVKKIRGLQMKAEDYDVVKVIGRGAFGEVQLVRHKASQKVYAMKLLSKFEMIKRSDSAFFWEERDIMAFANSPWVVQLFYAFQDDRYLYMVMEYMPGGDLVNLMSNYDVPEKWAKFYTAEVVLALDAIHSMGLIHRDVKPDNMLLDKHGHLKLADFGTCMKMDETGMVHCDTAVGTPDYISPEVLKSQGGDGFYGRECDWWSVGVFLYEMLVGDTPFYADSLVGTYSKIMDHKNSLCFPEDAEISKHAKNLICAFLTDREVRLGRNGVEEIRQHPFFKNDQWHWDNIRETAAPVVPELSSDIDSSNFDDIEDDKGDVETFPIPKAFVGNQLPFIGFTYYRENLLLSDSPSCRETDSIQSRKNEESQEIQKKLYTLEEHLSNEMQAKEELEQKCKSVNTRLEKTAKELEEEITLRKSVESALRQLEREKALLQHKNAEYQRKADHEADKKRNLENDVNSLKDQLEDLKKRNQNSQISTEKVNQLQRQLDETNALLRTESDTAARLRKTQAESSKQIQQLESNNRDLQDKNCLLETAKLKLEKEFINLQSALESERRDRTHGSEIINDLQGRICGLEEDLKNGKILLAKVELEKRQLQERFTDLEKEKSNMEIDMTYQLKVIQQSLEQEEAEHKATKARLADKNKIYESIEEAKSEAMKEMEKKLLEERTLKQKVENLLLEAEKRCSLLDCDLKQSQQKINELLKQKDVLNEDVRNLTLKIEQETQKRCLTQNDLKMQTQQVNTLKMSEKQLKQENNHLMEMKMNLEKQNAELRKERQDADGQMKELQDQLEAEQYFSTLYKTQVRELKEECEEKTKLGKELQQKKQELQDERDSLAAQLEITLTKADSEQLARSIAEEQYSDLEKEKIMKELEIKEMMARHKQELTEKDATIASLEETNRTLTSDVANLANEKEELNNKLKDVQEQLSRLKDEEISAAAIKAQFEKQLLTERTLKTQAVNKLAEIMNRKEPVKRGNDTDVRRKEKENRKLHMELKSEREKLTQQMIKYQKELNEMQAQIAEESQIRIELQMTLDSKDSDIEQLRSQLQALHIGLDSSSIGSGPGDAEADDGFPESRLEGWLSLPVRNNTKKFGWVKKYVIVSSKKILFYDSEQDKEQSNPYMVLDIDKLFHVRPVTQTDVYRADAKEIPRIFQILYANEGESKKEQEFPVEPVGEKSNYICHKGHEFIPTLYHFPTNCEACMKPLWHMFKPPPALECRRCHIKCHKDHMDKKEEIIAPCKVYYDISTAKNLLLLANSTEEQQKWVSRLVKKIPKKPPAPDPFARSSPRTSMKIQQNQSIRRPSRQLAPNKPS
Procedure: as §1

Rho kinase 1 (ROCK1), sequence (Q13464 whole entry): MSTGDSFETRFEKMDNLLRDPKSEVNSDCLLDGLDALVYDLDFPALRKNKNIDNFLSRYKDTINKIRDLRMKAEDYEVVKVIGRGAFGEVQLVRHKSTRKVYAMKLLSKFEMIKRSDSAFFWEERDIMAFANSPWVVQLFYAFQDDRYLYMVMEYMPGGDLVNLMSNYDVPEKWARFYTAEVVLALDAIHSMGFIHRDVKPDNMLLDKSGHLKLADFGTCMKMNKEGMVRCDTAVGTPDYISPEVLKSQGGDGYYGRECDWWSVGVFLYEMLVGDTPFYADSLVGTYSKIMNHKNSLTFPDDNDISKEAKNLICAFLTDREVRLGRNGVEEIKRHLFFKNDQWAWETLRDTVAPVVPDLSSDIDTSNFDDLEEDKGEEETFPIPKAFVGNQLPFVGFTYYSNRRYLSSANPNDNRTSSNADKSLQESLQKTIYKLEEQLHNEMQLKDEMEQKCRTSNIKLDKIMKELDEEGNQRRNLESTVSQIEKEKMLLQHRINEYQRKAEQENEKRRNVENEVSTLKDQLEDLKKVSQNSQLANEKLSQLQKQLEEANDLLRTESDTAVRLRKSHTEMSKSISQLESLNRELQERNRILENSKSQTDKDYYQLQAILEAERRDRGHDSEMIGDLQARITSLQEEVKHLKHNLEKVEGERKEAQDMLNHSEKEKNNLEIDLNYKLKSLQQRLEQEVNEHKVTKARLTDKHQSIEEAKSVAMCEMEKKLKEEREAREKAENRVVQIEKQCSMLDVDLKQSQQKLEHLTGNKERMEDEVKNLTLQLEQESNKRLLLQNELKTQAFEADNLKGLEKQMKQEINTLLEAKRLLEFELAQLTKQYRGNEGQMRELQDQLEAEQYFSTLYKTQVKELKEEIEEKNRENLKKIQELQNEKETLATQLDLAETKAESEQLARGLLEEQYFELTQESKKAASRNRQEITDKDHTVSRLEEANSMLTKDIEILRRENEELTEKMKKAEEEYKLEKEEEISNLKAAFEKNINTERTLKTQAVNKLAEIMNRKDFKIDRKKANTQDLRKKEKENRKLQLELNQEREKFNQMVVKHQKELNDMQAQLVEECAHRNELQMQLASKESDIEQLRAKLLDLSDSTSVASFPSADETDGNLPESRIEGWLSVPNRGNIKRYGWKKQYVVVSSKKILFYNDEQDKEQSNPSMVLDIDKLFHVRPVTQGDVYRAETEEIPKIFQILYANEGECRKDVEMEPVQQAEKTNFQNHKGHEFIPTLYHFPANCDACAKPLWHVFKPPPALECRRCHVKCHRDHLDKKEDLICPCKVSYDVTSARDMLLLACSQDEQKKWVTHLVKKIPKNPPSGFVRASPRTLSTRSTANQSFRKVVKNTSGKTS

Row | Compound | Ki (Rho kinase 1 (ROCK1)) [nM] | Ki (Rho kinase 2 (ROCK2)) [nM]
1 | NC(C(=O)Nc1ccc(C(F)(F)F)cc1)c1ccc(Oc2ccnc3[nH]ccc23)cc1 (centres unmarked) [Example 10, 2-(4-((1H-pyrrolo[2,3-b]pyridin-4-yl)oxy)phenyl)-2-amino-N-(4-(trifluoromethyl)phenyl)acetamide] | > 30 | > 30
2 | Cc1c[nH]c2nccc(Oc3ccc([C@H]4CNC[C@@H]4C(=O)NCc4ccccc4)cc3)c12 (racemic) [Example 17, rac-(3R,4S)-N-benzyl-4-(4-((3-methyl-1H-pyrrolo[2,3-b]pyridin-4-yl)oxy)phenyl)pyrrolidine-3-carboxamide] | < 3 | < 3
3 | CN(C)CCCNC(=O)C(CN)Cc1ccc(Oc2ccnc3[nH]cc(C#N)c23)cc1 (centres unmarked) [Example 44, 3-amino-2-(4-((3-cyano-1H-pyrrolo[2,3-b]pyridin-4-yl)oxy)benzyl)-N-(3-(dimethylamino)propyl)propanamide] | < 3 | < 3
4 | Cc1c[nH]c2nccc(Oc3ccc(CC(CN)C(=O)N4CCN(C)CC4)cc3)c12 (centres unmarked) [Example 1, 3-amino-2-(4-((3-methyl-1H-pyrrolo[2,3-b]pyridin-4-yl)oxy)benzyl)-1-(4-methylpiperazin-1-yl)propan-1-one] | < 3 | < 3
5 | COCCCNC(=O)C(CN)Cc1ccc(Oc2ccnc3[nH]ccc23)cc1 (centres unmarked) [Example 35, 2-(4-((1H-pyrrolo[2,3-b]pyridin-4-yl)oxy)benzyl)-3-amino-N-(3-methoxypropyl)propanamide] | 3 to 30 | 3 to 30
6 | Cc1c[nH]c2nccc(Oc3ccc(CC(CN)C(=O)N4CCN(Cc5ccccc5)CC4)cc3)c12 (centres unmarked) [Example 30, 3-amino-1-(4-benzylpiperazin-1-yl)-2-(4-((3-methyl-1H-pyrrolo[2,3-b]pyridin-4-yl)oxy)benzyl)propan-1-one] | < 3 | < 3
7 | NC(C(=O)Nc1ccccc1)c1ccc(Oc2ccnc3[nH]ccc23)cc1 (centres unmarked) [Example 9, 2-(4-((1H-pyrrolo[2,3-b]pyridin-4-yl)oxy)phenyl)-2-amino-N-phenylacetamide] | > 30 | > 30
8 | NCC(Cc1ccc(Oc2ccnc3[nH]ccc23)cc1)C(=O)NC1CCCCC1 (centres unmarked) [Example 33, 2-(4-((1H-pyrrolo[2,3-b]pyridin-4-yl)oxy)benzyl)-3-amino-N-cyclohexylpropanamide] | 3 to 30 | 3 to 30
9 | N#Cc1c[nH]c2nccc(Oc3ccc(CC(CN)C(=O)N4CCN(Cc5ccccn5)CC4)cc3)c12 (centres unmarked) [Example 49, 4-(4-(2-(aminomethyl)-3-oxo-3-(4-(pyridin-2-ylmethyl)piperazin-1-yl)propyl)phenoxy)-1H-pyrrolo[2,3-b]pyridine-3-carbonitrile] | 3 to 30 | < 3
10 | CN(C)C(=O)C(N)c1ccc(Oc2ccnc3[nH]ccc23)cc1 (centres unmarked) [Example 12, 2-(4-((1H-pyrrolo[2,3-b]pyridin-4-yl)oxy)phenyl)-2-amino-N,N-dimethylacetamide] | > 30 | > 30
11 | Cc1c[nH]c2nccc(Oc3ccc([C@H]4CCN[C@@H]4C(=O)NC4CCN(C)CC4)cc3)c12 (racemic) [Example 25, rac-(2S,3R)-3-(4-((3-methyl-1H-pyrrolo[2,3-b]pyridin-4-yl)oxy)phenyl)-N-(1-methylpiperidin-4-yl)pyrrolidine-2-carboxamide] | 3 to 30 | 3 to 30
12 | Cc1c[nH]c2nccc(Oc3ccc([C@@H]4CCN[C@H]4C(=O)N4CCNCC4)cc3)c12 (racemic) [Example 27, rac-((2S,3R)-3-(4-((3-methyl-1H-pyrrolo[2,3-b]pyridin-4-yl)oxy)phenyl)pyrrolidin-2-yl)(piperazin-1-yl)methanone] | 3 to 30 | 3 to 30
13 | Cc1c[nH]c2nccc(Oc3ccc([C@H]4CCN[C@@H]4C(=O)NCCOc4ccccc4)cc3)c12 (racemic) [Example 23, rac-(2S,3R)-3-(4-((3-methyl-1H-pyrrolo[2,3-b]pyridin-4-yl)oxy)phenyl)-N-(2-phenoxyethyl)pyrrolidine-2-carboxamide] | < 3 | < 3
14 | CN1CCN(C(=O)C(N)c2ccc(Oc3ccnc4[nH]ccc34)cc2)CC1 (centres unmarked) [Example 11, 2-(4-((1H-pyrrolo[2,3-b]pyridin-4-yl)oxy)phenyl)-2-amino-1-(4-methylpiperazin-1-yl)ethanone] | > 30 | > 30
15 | Cc1c[nH]c2nccc(Oc3ccc([C@@H]4CN(C)C[C@H]4C(=O)NCc4ccccc4)cc3)c12 (racemic) [Example 50, rac-(3R,4S)-N-benzyl-1-methyl-4-(4-((3-methyl-1H-pyrrolo[2,3-b]pyridin-4-yl)oxy)phenyl)pyrrolidine-3-carboxamide] | 3 to 30 | < 3
16 | Cc1c[nH]c2nccc(Oc3ccc(C4CC(=O)N(CCc5ccncc5)CN4)cc3)c12 (centres unmarked) [Example 40, 6-(4-((3-methyl-1H-pyrrolo[2,3-b]pyridin-4-yl)oxy)phenyl)-3-(2-(pyridin-4-yl)ethyl)tetrahydropyrimidin-4(1H)-one] | > 30 | > 30
17 | Cc1c[nH]c2nccc(Oc3ccc([C@H]4CCN[C@@H]4C(=O)NCc4ccccc4)cc3)c12 (racemic) [Example 19, rac-(2S,3R)-N-benzyl-3-(4-((3-methyl-1H-pyrrolo[2,3-b]pyridin-4-yl)oxy)phenyl)pyrrolidine-2-carboxamide] | < 3 | < 3
18 | Cc1c[nH]c2nccc(Oc3ccc([C@H]4CNC[C@@H]4C(=O)N(C)Cc4ccccc4)cc3)c12 (racemic) [Example 18, rac-(3R,4S)-N-benzyl-N-methyl-4-(4-((3-methyl-1H-pyrrolo[2,3-b]pyridin-4-yl)oxy)phenyl)pyrrolidine-3-carboxamide] | 3 to 30 | < 3
19 | NC(C(=O)NC1CCOCC1)c1ccc(Oc2ccnc3[nH]ccc23)cc1 (centres unmarked) [Example 13, 2-(4-((1H-pyrrolo[2,3-b]pyridin-4-yl)oxy)phenyl)-2-amino-N-(tetrahydro-2H-pyran-4-yl)acetamide] | > 30 | > 30
20 | Cc1c[nH]c2nccc(Oc3ccc(CC(CN)C(=O)N4CCN(Cc5ccccn5)CC4)cc3F)c12 (centres unmarked) [Example 5, 3-amino-2-(3-fluoro-4-((3-methyl-1H-pyrrolo[2,3-b]pyridin-4-yl)oxy)benzyl)-1-(4-(pyridin-2-ylmethyl)piperazin-1-yl)propan-1-one] | < 3 | < 3
21 | Cc1c[nH]c2nccc(Oc3ccc([C@H]4CCN[C@@H]4C(=O)NCCc4ccccc4)cc3)c12 (racemic) [Example 22, rac-(2S,3R)-3-(4-((3-methyl-1H-pyrrolo[2,3-b]pyridin-4-yl)oxy)phenyl)-N-phenethylpyrrolidine-2-carboxamide] | < 3 | < 3

Next, values leading:

Row | Ki (Rho kinase 1 (ROCK1)) [nM] | Ki (Rho kinase 2 (ROCK2)) [nM] | Compound
22 | < 3 | < 3 | Cc1c[nH]c2nccc(Oc3ccc(C(N)CC(=O)N4CCN(Cc5ccccc5)CC4)cc3)c12 (single isomer, unassigned) [Example 7A, 3-amino-1-(4-benzylpiperazin-1-yl)-3-(4-((3-methyl-1H-pyrrolo[2,3-b]pyridin-4-yl)oxy)phenyl)propan-1-one]
23 | 3 to 30 | 3 to 30 | Cc1c[nH]c2nccc(Oc3ccc(CC(CN)C(=O)N4CCN(Cc5ccccc5)CC4)cc3F)c12 (single isomer, unassigned) [Example 29A, 3-amino-1-(4-benzylpiperazin-1-yl)-2-(3-fluoro-4-((3-methyl-1H-pyrrolo[2,3-b]pyridin-4-yl)oxy)benzyl)propan-l-one]
24 | 3 to 30 | 3 to 30 | Cc1c[nH]c2nccc(Oc3ccc(CC(CN)C(=O)N4CCN(Cc5ccccn5)CC4)cc3F)c12 (single isomer, unassigned) [Example 5A, 3-amino-2-(3-fluoro-4-((3-methyl-1H-pyrrolo[2,3-b]pyridin-4-yl)oxy)benzyl)-1-(4-(pyridin-2-ylmethyl)piperazin-1-yl)propan-1-one]
25 | < 3 | < 3 | NCC(Cc1ccc(Oc2ccnc3[nH]ccc23)cc1)C(=O)N1CCN(Cc2ccccc2)CC1 (single isomer, unassigned) [Example 32B, 2-(4-((1H-pyrrolo[2,3-b]pyridin-4-yl)oxy)benzyl)-3-amino-1-(4-benzylpiperazin-1-yl)propan-1-one]
26 | < 3 | < 3 | Cc1c[nH]c2nccc(Oc3ccc([C@H]4CNC[C@@H]4C(=O)NCc4ccccc4)cc3)c12 (single isomer, unassigned) [Example 17A]
27 | 3 to 30 | 3 to 30 | Cc1c[nH]c2nccc(Oc3ccc(C(N)CC(=O)N4CCN(Cc5ccccc5)CC4)cc3)c12 (single isomer, unassigned) [Example 7B, 3-amino-1-(4-benzylpiperazin-1-yl)-3-(4-((3-methyl-1H-pyrrolo[2,3-b]pyridin-4-yl)oxy)phenyl)propan-1-one]
28 | < 3 | < 3 | Cc1c[nH]c2nccc(Oc3ccc(CC(CN)C(=O)N4CCN(Cc5ccccc5)CC4)cc3F)c12 (single isomer, unassigned) [Example 29B, 3-amino-1-(4-benzylpiperazin-1-yl)-2-(3-fluoro-4-((3-methyl-1H-pyrrolo[2,3-b]pyridin-4-yl)oxy)benzyl)propan-1-one]
